We go through four compounds from ChEMBL document CHEMBL1152817, “Prevention of organ allograft rejection by a specific Janus kinase 3 inhibitor” (Science, 2003).

For experiment [1], the target named is Tyrosine-protein kinase JAK2 (Homo sapiens, UniProt O60674).
The next experiment has as its system HFF. Nature of the experiment: cells. To be noted: Homo sapiens.
The target of experiment [2] is Tyrosine-protein kinase JAK1 (Homo sapiens, UniProt P23458).
The test system of the next experiment is T-cell. Nature of the experiment: cells. To be noted: Homo sapiens.
Another experiment in a line: cells. To be noted: Homo sapiens, HUO3.

Sequence of Tyrosine-protein kinase JAK2 (O60674 whole entry): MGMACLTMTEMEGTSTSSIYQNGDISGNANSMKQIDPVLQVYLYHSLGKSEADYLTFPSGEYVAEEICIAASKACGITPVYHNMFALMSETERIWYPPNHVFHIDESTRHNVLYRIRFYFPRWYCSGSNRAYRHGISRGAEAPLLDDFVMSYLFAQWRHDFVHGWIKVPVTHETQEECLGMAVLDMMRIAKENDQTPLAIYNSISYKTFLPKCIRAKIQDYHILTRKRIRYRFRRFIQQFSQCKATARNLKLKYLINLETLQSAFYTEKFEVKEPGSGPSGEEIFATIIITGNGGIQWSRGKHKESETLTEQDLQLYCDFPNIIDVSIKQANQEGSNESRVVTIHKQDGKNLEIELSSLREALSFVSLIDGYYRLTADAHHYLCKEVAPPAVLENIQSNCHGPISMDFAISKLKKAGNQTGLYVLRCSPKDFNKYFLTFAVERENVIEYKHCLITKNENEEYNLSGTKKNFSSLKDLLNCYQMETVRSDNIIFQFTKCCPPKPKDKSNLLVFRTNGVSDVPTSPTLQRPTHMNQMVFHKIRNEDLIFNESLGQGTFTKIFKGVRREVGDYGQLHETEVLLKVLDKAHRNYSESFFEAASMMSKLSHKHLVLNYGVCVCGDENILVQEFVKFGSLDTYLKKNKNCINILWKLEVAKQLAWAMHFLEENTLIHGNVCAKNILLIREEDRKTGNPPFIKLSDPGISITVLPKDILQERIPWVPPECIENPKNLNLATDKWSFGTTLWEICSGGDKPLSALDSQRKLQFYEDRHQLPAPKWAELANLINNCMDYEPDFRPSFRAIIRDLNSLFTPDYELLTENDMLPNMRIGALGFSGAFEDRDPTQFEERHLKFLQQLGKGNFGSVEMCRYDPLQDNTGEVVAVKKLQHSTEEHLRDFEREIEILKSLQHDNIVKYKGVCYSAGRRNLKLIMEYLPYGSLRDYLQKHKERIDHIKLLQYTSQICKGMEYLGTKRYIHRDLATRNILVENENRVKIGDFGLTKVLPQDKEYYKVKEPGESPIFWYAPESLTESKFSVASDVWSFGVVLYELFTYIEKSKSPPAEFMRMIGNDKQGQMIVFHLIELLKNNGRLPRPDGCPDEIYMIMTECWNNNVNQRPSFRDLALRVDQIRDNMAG
Sequence of Tyrosine-protein kinase JAK1 (P23458 whole entry): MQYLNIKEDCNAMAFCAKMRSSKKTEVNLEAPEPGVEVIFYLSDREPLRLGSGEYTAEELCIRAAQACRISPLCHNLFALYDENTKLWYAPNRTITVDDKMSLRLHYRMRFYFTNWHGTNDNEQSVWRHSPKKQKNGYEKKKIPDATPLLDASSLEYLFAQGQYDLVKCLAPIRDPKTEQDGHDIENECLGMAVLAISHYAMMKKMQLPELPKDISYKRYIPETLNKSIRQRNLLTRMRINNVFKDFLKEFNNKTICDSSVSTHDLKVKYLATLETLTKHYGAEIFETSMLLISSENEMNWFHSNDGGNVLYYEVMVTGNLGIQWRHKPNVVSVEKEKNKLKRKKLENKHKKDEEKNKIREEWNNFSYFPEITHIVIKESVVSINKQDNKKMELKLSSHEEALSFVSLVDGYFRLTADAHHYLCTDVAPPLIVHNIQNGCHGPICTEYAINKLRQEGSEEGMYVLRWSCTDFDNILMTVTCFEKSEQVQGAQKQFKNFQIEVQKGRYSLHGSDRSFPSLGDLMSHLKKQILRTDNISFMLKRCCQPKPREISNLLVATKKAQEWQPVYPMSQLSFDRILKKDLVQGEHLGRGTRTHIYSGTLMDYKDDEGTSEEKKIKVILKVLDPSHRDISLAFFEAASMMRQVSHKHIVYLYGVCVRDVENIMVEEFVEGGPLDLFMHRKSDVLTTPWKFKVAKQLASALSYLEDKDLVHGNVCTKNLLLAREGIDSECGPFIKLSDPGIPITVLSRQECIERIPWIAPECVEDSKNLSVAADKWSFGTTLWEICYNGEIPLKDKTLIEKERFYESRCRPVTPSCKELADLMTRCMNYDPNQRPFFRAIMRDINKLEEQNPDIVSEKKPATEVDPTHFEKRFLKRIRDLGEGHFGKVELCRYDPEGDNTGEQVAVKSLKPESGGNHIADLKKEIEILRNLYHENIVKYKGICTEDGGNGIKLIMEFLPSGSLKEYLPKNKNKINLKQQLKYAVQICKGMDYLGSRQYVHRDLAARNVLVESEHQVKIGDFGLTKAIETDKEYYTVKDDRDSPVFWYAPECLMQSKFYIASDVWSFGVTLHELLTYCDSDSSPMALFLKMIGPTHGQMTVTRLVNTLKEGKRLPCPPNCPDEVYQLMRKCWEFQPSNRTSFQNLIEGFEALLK
Description for HFF: Inhibition of fetal calf serum-induced proliferation of human foreskin fibroblast assessed as [3H]thymidine incorporation after 4 days by scintillation counting
Description for T-cell: Inhibition of IL2-induced proliferation of human T cells assessed as [3H]thymidine incorporation after 72 hrs by scintillation counting

For `COc1cc2ncnc(Nc3ccc(O)c(Br)c3)c2cc1OC`, the 50% inhibitory concentration (IC50) is more than 10 µM in experiment [1], 6.34 µM in the experiment on HFF, more than 10 µM in experiment [2] and 5.09 µM in the experiment on T-cell.
For `COc1cc2ncnc(Nc3ccc(O)cc3)c2cc1OC` [WHI-P131], the IC50 (in the experiment “cells”; in experiment [1]; in experiment [2]; in the experiment on T-cell) was more than 10 µM each time.
Consider `c1ccc2c(c1)C1CCCCC1N2c1ncnc2[nH]ccc12` (stereo not given), for which the results for the IC50 in the experiment on HFF and in the experiment on T-cell were 10 µM and 3.69 µM, respectively.
In the case of `N#C/C(=C\c1ccc(O)c(O)c1)C(=O)NCc1ccccc1`, the half-inhibitory concentration (IC50) in the experiment “cells” was 7.56 µM; in experiment [1], more than 10 µM; with HFF it was 5.58 µM; in experiment [2] it was 3.38 µM; in the experiment on T-cell, 3.75 µM.

In general, IC50 refers to the concentration that gives 50% inhibition.
